Assay results reported in US20190017067A1, “[…] PLANTS HAVING MODIFIED 5-ENOLPYRUVYLSHIKIMATE-3-PHOSPHATE SYNTHASE GENE REGULATION” (Regents of the University of Minnesota, priority 2016, published 2019).
Entries after “also recorded” stand apart in the source; their conditions may differ.

Tests used:
Type in all cases: in vivo, cassava (Manihot esculenta)
[1] = tested on: cassava plants transgenic for H063 (RB1 promoter driving the TIPA EPSPS sequence); test: Greenhouse glyphosate challenge, visual damage score; details: two independent lines, assay as for FIG. 6 (50 mg active ingredient per plant; 1=no damage, 7=plant death)
Experimental: (§1) Plants transgenic for 2×35S and native EPSPS promoter expression cassettes were established in the greenhouse following procedures described elsewhere (Taylor et al., 2012 Tropical Plant Biology, 5: 127-139; and Chauhan et al., 2015 Plant Cell Tissue and Organ Culture 121: 591-603). Glyphosate 5.4 was prepared in a solution containing Surface surfactant and applied to leaves of 4-5 week old plants. Glyphosate was applied at a rate of 50 mg active ingredient per plant in a dropwise manner to the youngest 1-2 fully expanded leaves. Plants were grown on the greenhouse bench under conditions described elsewhere (Taylor et al., 2012 Tropical Plant Biology, 5: 127-139; and Chauhan et al., 2015 Plant Cell Tissue and Organ Culture 121: 591-603). Three times per week plants were scored visually on a 1-7 scale for damaged caused by the glyphosate application, where 1=no damage and 7=death.
(§2) To test the suitability of the two best promoter candidates for driving EPSPS expression, the RB1 and DFP promoters were used to drive expression of TIPA gene models (as shown in FIG. 12) transformed into cassava as described for the other gene models in Example 2. Independent lines were challenged with glyphosate as described for the other gene models in Example 6.

[2] = tested on: cassava plants transgenic for H064 (DFP promoter driving the TIPA EPSPS sequence); test: as above; details: four independent lines, assay as for FIG. 6 (50 mg active ingredient per plant; 1=no damage, 7=plant death)
Experimental: as §1, §2

[3] = tested on: cassava plants transgenic for H009 (EPSPS promoter driving the GAAT (G101A/A192T) EPSPS sequence); test: as above; details: 50 mg active ingredient per plant applied dropwise to leaves of 4-5 week old plants, scored three times weekly, 1=no damage, 7=plant death
Experimental: as §1

[4] = tested on: cassava plants transgenic for H010 (double 35S promoter driving the GAAT EPSPS sequence); test: as above; details: 50 mg active ingredient per plant applied dropwise to leaves of 4-5 week old plants, scored three times weekly, 1=no damage, 7=plant death
Experimental: as §1

[5] = tested on: cassava plants transgenic for H014 (double 35S promoter driving the TIPI EPSPS sequence); test: as above; details: 50 mg active ingredient per plant applied dropwise to leaves of 4-5 week old plants, scored three times weekly, 1=no damage, 7=plant death
Experimental: as §1

[6] = tested on: cassava plants transgenic for H013 (EPSPS promoter driving the TIPI (T102I/P106I) EPSPS sequence); test: as above; details: 50 mg active ingredient per plant applied dropwise to leaves of 4-5 week old plants, scored three times weekly, 1=no damage, 7=plant death
Experimental: as §1

[7] = tested on: WT non-transgenic cassava plant (susceptible control); test: Greenhouse glyphosate challenge, phenotype; details: 50 mg active ingredient per plant, 21 days after application (FIG. 7)
Experimental: as §1

[8] = tested on: non-transgenic cassava stem cuttings; test: In vitro rooting test on glyphosate-containing media; details: glyphosate added to the medium at 0.05 mM
Experimental: Experiments were conducted to access the effects of glyphosate on in vitro rooting by culturing non transgenic shoots on media containing different concentrations of glyphosate ranging from 0.001 mM to 1.0 mM.
(§3) Plantlets were regenerated from five independent transformation events with each gene model vector. Apical stem cuttings approximately 1.5 cm in length were excised from in vitro shoot cultures of transgenic plant lines and cultured on Murashige and Skoog basal media supplemented with 0.05 mM glyphosate. A total of five Petri dishes were established per transgenic event with three plantlets cultured in each dish.
(§4) Plants were monitored for a period of three weeks. The number of roots formed, length of roots, shoot vigor, and overall plant health were recorded at weekly intervals.

[9] = tested on: cassava plants edited with the H056 vector (double 35s promoter driving the TIPA enzyme); test: Greenhouse glyphosate challenge of gene-edited plants; details: H056 edited event; 50 mg active ingredient per plant; assay as for FIG. 6; compared with H004 event
Experimental: as §1
Vectors containing gene editing reagents described in Example 8 were introduced into cassava callus via Agrobacterium transformation (for example, SEQ ID NOs: 11-14). The vectors were designed to repair the EPSPS promoter excision event either by HR or NHEJ from a standard T-DNA (H055; SEQ ID NO: 11), by HR only from a standard T-DNA (H056; SEQ ID NO: 12), or by HR only from a geminivirus replicon (H060; SEQ ID NO: 14). […]

[10] = tested on: shoots of transgenic events expressing high levels of the T102I/P106A (TIPA) enzyme; test: In vitro rooting test on glyphosate-containing media; details: media containing 0.05 mM glyphosate; compared to events expressing the gene variant at lower levels; p=0.00
Description: Gene models are shown in FIG. 2, and indicated as follows: H001, WT EPSPS driven by the TME7 EPSPS promoter; H002, T102I/P106A EPSPS driven by the TME7 EPSPS promoter; H003, WT EPSPS driven by the 2×35s promoter; H004, T102I/P106A EPSPS driven by the 2×35s promoter.
as §3, §4

O=C(O)CNCP(=O)(O)O [glyphosate]
average damage to the shoots, scale of 1-7 [1]: 3-4
average damage to the shoots, scale of 1-7 [2]: around 4
average damage to the shoots, scale of 1-7 [3]: 4-6.5
average damage to the shoots, scale of 1-7 [4]: 3-4
average damage to the shoots, scale of 1-7 [5]: 1-3.5
average damage to the shoots, scale of 1-7 [6]: 4-5.5
phenotype after herbicide challenge [7]: complete killing
effect on in vitro rooting and shoots [8]: Inhibited root formation and shoot death
glyphosate tolerance of edited plants (damage over time) [9]: equivalent to the best H004 event recovered; also recorded: equivalent to performance of the best H004
number and length of roots formed [10]: more and longer roots
